Here are results for 3 compounds from publication PMC10477347, “O-methyltransferase-like enzyme catalyzed diazo installation in polyketide biosynthesis” (Nature Communications, 2023).

In one assay the target is T1, AlpJ (Streptomyces ambofaciens, UniProt Q6VMI5).
T1 construct: pET28a, Ni-NTA purified from E. coli BL21(DE3); gene amplified from kinamycin BAC 3C2
T1 sequence (Q6VMI5 1-232): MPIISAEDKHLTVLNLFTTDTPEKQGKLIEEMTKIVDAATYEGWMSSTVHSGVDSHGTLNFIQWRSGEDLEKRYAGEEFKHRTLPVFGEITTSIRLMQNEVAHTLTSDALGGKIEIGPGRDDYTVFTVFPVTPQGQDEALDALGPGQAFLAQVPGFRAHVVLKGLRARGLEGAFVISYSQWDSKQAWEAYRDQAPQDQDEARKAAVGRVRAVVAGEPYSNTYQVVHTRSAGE
The assay can be described thus: HPLC of products […] and […] from one-pot reaction with AlpK. Format: biochemical. Particulars: NADH, FAD, pH 7.5, 30 °C.

The target of the next assay is T2, AlpH (Streptomyces ambofaciens, UniProt Q6VMJ4).
T2 construct: N-terminal His6-tagged, pET28a, E. coli BL21(DE3); homodimer in the apo crystal; gene amplified from kinamycin BAC 3C2
The assay can be described thus: surface plasmon resonance (Biacore 8K, AlpH immobilized on CM5). In kind it is binding. From the text:
surface plasmon resonance (Biacore 8K, AlpH immobilized on CM5) on AlpH | Surface plasmon resonance analysis of AlpH and gluN2H3 also identified a specific interaction between them
(In general: SPR reads the build-up and loss of mass on a sensor chip optically.)

Assay [1] deals with AlpH, O-methyltransferase-like protein from the kinamycin biosynthetic gene cluster. The assay can be described thus: crystal structure; apo-AlpH, hanging drop vapor diffusion at 16 °C; protein in 20 mM Tris-HCl pH 7.5, 100 mM NaCl, 1 mM DTT, 1 mM EDTA; reservoir 0.03 M citric acid, 0.07 M Bis-Tris propane pH 7.6, 20% PEG3350; molecular replacement, 1.87 Å.

For orientation: Kd means a measure of binding affinity in units of concentration. Low values mean higher affinity, high ones lower affinity. A word on the stoichiometry N: it is a count of units in the complex or per binding partner.

T2 sequence (Q6VMJ4 entry or part of it): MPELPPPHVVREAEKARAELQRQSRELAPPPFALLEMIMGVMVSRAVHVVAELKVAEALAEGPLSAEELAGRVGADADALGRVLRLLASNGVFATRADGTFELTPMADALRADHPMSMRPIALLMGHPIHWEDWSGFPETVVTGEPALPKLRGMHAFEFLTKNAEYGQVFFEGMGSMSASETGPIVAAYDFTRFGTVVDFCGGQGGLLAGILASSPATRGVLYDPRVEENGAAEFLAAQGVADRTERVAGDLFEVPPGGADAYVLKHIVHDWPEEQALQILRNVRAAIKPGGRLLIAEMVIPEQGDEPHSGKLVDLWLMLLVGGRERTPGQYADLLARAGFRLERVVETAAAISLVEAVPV

`Cc1cc(O)c2c3c(c(O)cc2c1)C(=O)c1c(O)cccc1C3=O` [DHR]: the “HPLC of products 1 and 6 from one-pot reaction with AlpK” value at AlpJ was “prepared in situ by incubating AlpJ and AlpK with DHR and NADH”.

At AlpH, `NNC(=O)CC[C@H](N)C(=O)O` [gluN2H3] gave a Kd of 114 nM.

As to “AlpH, O-methyltransferase-like protein from the kinamycin biosynthetic gene cluster (enzyme)”, in assay [1], the stoichiometry N was 2.
